Among the test systems are SNB-75 CNS; OVCAR-5 ovarian; LOX IMVI melanoma; NCI-H226 lung; SK-MEL-28 melanoma; K-562 leukemia; CAKI-1 renal; NCI/ADR-RES ovarian; OVCAR-4 ovarian; KM12 colon; MDA-MB-231 breast; DU-145 prostate; HCT-116 colon; RPMI-8226 leukemia; SK-OV-3 ovarian; M14 melanoma; SK-MEL-5 melanoma.
What all share (assay): growth of human tumour cells (NCI), 48 h

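1) Cells in 96-well plates. 2) Compound, 48 h, 5 concentrations. 3) Linear interpolation between surrounding doses. 4) Unreached endpoint = highest concentration. TGI: total growth inhibition.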

Turning to `Oc1cccc2ccc(Br)nc12`, the TGI in the assay with SNB-75 CNS, in the assay on OVCAR-5 ovarian, in the assay on LOX IMVI melanoma, in the assay with NCI-H226 lung, with SK-MEL-28 melanoma and in the assay on K-562 leukemia was over 100 µM in each case. The TGI in the assay on CAKI-1 renal, with NCI/ADR-RES ovarian, in the assay with OVCAR-4 ovarian, with KM12 colon, in the assay on MDA-MB-231 breast and in the assay on DU-145 prostate was over 100 µM each time. The TGI with HCT-116 colon, with RPMI-8226 leukemia, in the assay on SK-OV-3 ovarian, in the assay with M14 melanoma and in the assay on SK-MEL-5 melanoma was over 100 µM throughout.
As to `Nc1ncc2c(n1)-c1ccccc1OC2N1CCOCC1` (stereo unspecified), the TGI in the assay on SNB-75 CNS, with OVCAR-5 ovarian, in the assay on LOX IMVI melanoma, with NCI-H226 lung, in the assay with SK-MEL-28 melanoma and with K-562 leukemia was over 100 µM throughout. For the same compound, the TGI in the assay on CAKI-1 renal, in the assay with NCI/ADR-RES ovarian, in the assay on OVCAR-4 ovarian, with KM12 colon, in the assay with MDA-MB-231 breast and in the assay with DU-145 prostate was over 100 µM throughout. Moreover, the TGI in the assay with HCT-116 colon, with RPMI-8226 leukemia, in the assay on SK-OV-3 ovarian, in the assay on M14 melanoma and with SK-MEL-5 melanoma was over 100 µM throughout.
On to `CCOC(=O)/C(=C\c1c(C)[nH]c2ccccc12)P(=O)(OCC)OCC`, for which the TGI in the assay on SNB-75 CNS, in the assay with OVCAR-5 ovarian, in the assay with LOX IMVI melanoma, with NCI-H226 lung, in the assay on SK-MEL-28 melanoma and in the assay with K-562 leukemia was over 100 µM each time. Further, the TGI in the assay with CAKI-1 renal, in the assay on NCI/ADR-RES ovarian, in the assay on OVCAR-4 ovarian, in the assay on KM12 colon, in the assay on MDA-MB-231 breast and with DU-145 prostate was over 100 µM throughout. For the same compound, the TGI in the assay with HCT-116 colon, in the assay on RPMI-8226 leukemia, in the assay with SK-OV-3 ovarian, in the assay with M14 melanoma and in the assay on SK-MEL-5 melanoma was over 100 µM each time.
For the compound `CC1N=C(c2ccccc2)OC1=O` (stereo unspecified), the TGI in the assay on SNB-75 CNS, with OVCAR-5 ovarian, in the assay with LOX IMVI melanoma, in the assay with NCI-H226 lung, with SK-MEL-28 melanoma and in the assay on K-562 leukemia was over 100 µM each time. The TGI in the assay on CAKI-1 renal, in the assay with NCI/ADR-RES ovarian, with OVCAR-4 ovarian, in the assay on KM12 colon, in the assay on MDA-MB-231 breast and with DU-145 prostate was over 100 µM throughout. Further, the TGI in the assay with HCT-116 colon, in the assay with RPMI-8226 leukemia, in the assay with SK-OV-3 ovarian, in the assay on M14 melanoma and in the assay with SK-MEL-5 melanoma was over 100 µM in each case.
In the case of `Cc1ccc(O)c(C(c2cc(C)ccc2O)c2cc([N+](=O)[O-])ccc2O)c1`, the TGI in the assay on SNB-75 CNS was 21.2 µM; with OVCAR-5 ovarian, 28.8 µM; in the assay with LOX IMVI melanoma, over 100 µM; with NCI-H226 lung, 55.8 µM; in the assay on SK-MEL-28 melanoma, 39.6 µM; with K-562 leukemia it was over 100 µM. For the same compound, the TGI in the assay on CAKI-1 renal turned out to be 24.8 µM; in the assay with NCI/ADR-RES ovarian it was 66.8 µM; in the assay on OVCAR-4 ovarian, 28.3 µM; in the assay on KM12 colon, 21.2 µM; with MDA-MB-231 breast, 22.3 µM; in the assay on DU-145 prostate, 50.3 µM. Moreover, the TGI in the assay on HCT-116 colon is 56.1 µM; with RPMI-8226 leukemia it was 50.6 µM; in the assay on SK-OV-3 ovarian, 37 µM; in the assay with M14 melanoma it was 24.5 µM; in the assay on SK-MEL-5 melanoma it was over 100 µM.
Consider `C[C@]12CC[C@H](O)CC1=CC[C@@H]1[C@@H]2CC[C@]2(C)NC(=O)/C(=C\c3ccccc3)C[C@@H]12`, for which the TGI with SNB-75 CNS is 48.5 µM; in the assay on OVCAR-5 ovarian, 27.9 µM; with LOX IMVI melanoma, 42.5 µM; in the assay on NCI-H226 lung it was 34.3 µM; with SK-MEL-28 melanoma, 32 µM; in the assay on K-562 leukemia it was over 100 µM. For the same compound, the TGI stood at 73.1 µM with CAKI-1 renal; 53 µM in the assay on NCI/ADR-RES ovarian; 60.8 µM with OVCAR-4 ovarian; 30.3 µM in the assay with KM12 colon; 38.9 µM with MDA-MB-231 breast; 33.5 µM in the assay on DU-145 prostate. For the same compound, the TGI in the assay with HCT-116 colon was 37 µM; in the assay on RPMI-8226 leukemia it was 56 µM; with SK-OV-3 ovarian, 35.5 µM; in the assay on M14 melanoma it was 29.2 µM; in the assay on SK-MEL-5 melanoma, 25.7 µM.
With `COc1ccc(C2=NN(C(=O)c3ccc(Cl)cc3)C(O)(c3cc(F)c(Cl)cc3Cl)C2)cc1` (stereo unspecified), the TGI in the assay with SNB-75 CNS, with OVCAR-5 ovarian, in the assay with LOX IMVI melanoma, in the assay with NCI-H226 lung, with SK-MEL-28 melanoma and with K-562 leukemia was over 100 µM throughout. Besides, the TGI in the assay with CAKI-1 renal, with NCI/ADR-RES ovarian, in the assay on OVCAR-4 ovarian, with KM12 colon, in the assay on MDA-MB-231 breast and with DU-145 prostate was over 100 µM each time. Further, the TGI in the assay on HCT-116 colon, in the assay on RPMI-8226 leukemia, in the assay on SK-OV-3 ovarian, in the assay with M14 melanoma and in the assay on SK-MEL-5 melanoma was over 100 µM in each case.
In the case of `Cc1cnc2[nH]c(-c3ccc(Cl)cc3)cc(=O)c2c1`, the TGI is over 100 µM with SNB-75 CNS; over 31.6 µM with OVCAR-5 ovarian; over 100 µM with LOX IMVI melanoma; over 100 µM in the assay on NCI-H226 lung; over 100 µM with SK-MEL-28 melanoma; 19.8 µM with K-562 leukemia. The TGI is over 55.6 µM in the assay with CAKI-1 renal; over 26.3 µM with NCI/ADR-RES ovarian; over 100 µM with OVCAR-4 ovarian; over 100 µM in the assay with KM12 colon; over 19.9 µM in the assay on MDA-MB-231 breast; over 69.8 µM in the assay on DU-145 prostate. The TGI is over 29.3 µM in the assay on HCT-116 colon; over 60.3 µM in the assay on RPMI-8226 leukemia; over 100 µM with SK-OV-3 ovarian; over 100 µM in the assay on M14 melanoma; over 100 µM with SK-MEL-5 melanoma.
As to `c1cc2c3ccsc3c3sccc3c2s1`, the TGI in the assay on SNB-75 CNS, in the assay with OVCAR-5 ovarian, in the assay on LOX IMVI melanoma, with NCI-H226 lung, with SK-MEL-28 melanoma and in the assay on K-562 leukemia was over 100 µM in each case. For the same compound, the TGI with CAKI-1 renal, with NCI/ADR-RES ovarian, in the assay with OVCAR-4 ovarian, with KM12 colon, in the assay on MDA-MB-231 breast and with DU-145 prostate was over 100 µM each time. The TGI with HCT-116 colon, in the assay on RPMI-8226 leukemia, with SK-OV-3 ovarian, in the assay on M14 melanoma and in the assay with SK-MEL-5 melanoma was over 100 µM each time.
As for `O=c1[nH]c(=O)n(C2CC(O)C(COP(=O)(OCC(Cl)(Cl)Cl)OCC(Cl)(Cl)Cl)O2)cc1F` (stereo unspecified), the TGI with SNB-75 CNS, in the assay on OVCAR-5 ovarian, in the assay with LOX IMVI melanoma, with NCI-H226 lung, in the assay on SK-MEL-28 melanoma and with K-562 leukemia was over 100 µM throughout. Further, the TGI in the assay on CAKI-1 renal, in the assay on NCI/ADR-RES ovarian, in the assay on OVCAR-4 ovarian, in the assay with KM12 colon, in the assay with MDA-MB-231 breast and in the assay on DU-145 prostate was over 100 µM in each case. Moreover, the TGI in the assay with HCT-116 colon, with RPMI-8226 leukemia, in the assay on SK-OV-3 ovarian, with M14 melanoma and with SK-MEL-5 melanoma was over 100 µM each time.
Regarding `Cc1ccc2c(c1)CC1(C2)Cc2ccc(C)cc2C1=O` (stereo unspecified), the TGI is 84.3 µM with SNB-75 CNS; over 100 µM in the assay with OVCAR-5 ovarian; 36.4 µM with LOX IMVI melanoma; 61.6 µM in the assay with NCI-H226 lung; over 100 µM in the assay with SK-MEL-28 melanoma; over 100 µM with K-562 leukemia. Also, the TGI is 87.2 µM in the assay on CAKI-1 renal; 62.6 µM in the assay on NCI/ADR-RES ovarian; over 100 µM with OVCAR-4 ovarian; 53.6 µM in the assay with KM12 colon; 62.5 µM with MDA-MB-231 breast; over 100 µM with DU-145 prostate. Moreover, the TGI with HCT-116 colon is 71.9 µM; in the assay with RPMI-8226 leukemia it was 95.3 µM; in the assay with SK-OV-3 ovarian, over 100 µM; in the assay with M14 melanoma, 71.6 µM; in the assay with SK-MEL-5 melanoma it was 26 µM.
In the case of `C=CCN1C(=O)CS/C1=N\NC(=O)CSc1nc2ccccc2c(=O)n1CC`, the TGI in the assay on SNB-75 CNS, with OVCAR-5 ovarian, with LOX IMVI melanoma, in the assay with NCI-H226 lung, in the assay with SK-MEL-28 melanoma and in the assay on K-562 leukemia was over 100 µM in each case. Besides, the TGI in the assay on CAKI-1 renal, in the assay with NCI/ADR-RES ovarian, in the assay on OVCAR-4 ovarian, in the assay on KM12 colon, with MDA-MB-231 breast and in the assay on DU-145 prostate was over 100 µM throughout. The TGI with HCT-116 colon, in the assay with RPMI-8226 leukemia, with SK-OV-3 ovarian, in the assay with M14 melanoma and in the assay on SK-MEL-5 melanoma was over 100 µM in each case.
Turning to `Cn1c(N)c(/C=C/C(=O)Oc2ccccc2)c(=O)n(C)c1=O`, the TGI is 66.5 µM in the assay on SNB-75 CNS; over 100 µM with OVCAR-5 ovarian; over 100 µM in the assay on LOX IMVI melanoma; over 100 µM in the assay on NCI-H226 lung; over 100 µM with SK-MEL-28 melanoma; over 100 µM with K-562 leukemia. Moreover, the TGI in the assay on CAKI-1 renal was 63.8 µM; with NCI/ADR-RES ovarian, over 100 µM; in the assay with OVCAR-4 ovarian it was over 100 µM; in the assay with KM12 colon it was over 100 µM; in the assay with MDA-MB-231 breast it was over 100 µM; in the assay on DU-145 prostate, over 100 µM. Besides, the TGI in the assay with HCT-116 colon, in the assay with RPMI-8226 leukemia, in the assay with SK-OV-3 ovarian, with M14 melanoma and with SK-MEL-5 melanoma was over 100 µM each time.

The record behind these values is PubChem BioAssay (NCI).
